Several values for one entry are separate records, joined by “and”; a condition that tells them apart may be missing. Equal values may be shown once.
Experiments:
[1] = target: T1, human FXR (NR1H4) (Homo sapiens, UniProt Q96RI1); experiment: Human FXR (NR1H4) agonist assessment, FXRE-NanoLuc reporter in HEK293T cells; assay type: cell-based; settings: FXR activation, HEK293T FXRE-NanoLuc reporter, 24 hr; for EC50: read-out: EC50
T1 sequence (Q96RI1 1-476 isoform Q96RI1-1): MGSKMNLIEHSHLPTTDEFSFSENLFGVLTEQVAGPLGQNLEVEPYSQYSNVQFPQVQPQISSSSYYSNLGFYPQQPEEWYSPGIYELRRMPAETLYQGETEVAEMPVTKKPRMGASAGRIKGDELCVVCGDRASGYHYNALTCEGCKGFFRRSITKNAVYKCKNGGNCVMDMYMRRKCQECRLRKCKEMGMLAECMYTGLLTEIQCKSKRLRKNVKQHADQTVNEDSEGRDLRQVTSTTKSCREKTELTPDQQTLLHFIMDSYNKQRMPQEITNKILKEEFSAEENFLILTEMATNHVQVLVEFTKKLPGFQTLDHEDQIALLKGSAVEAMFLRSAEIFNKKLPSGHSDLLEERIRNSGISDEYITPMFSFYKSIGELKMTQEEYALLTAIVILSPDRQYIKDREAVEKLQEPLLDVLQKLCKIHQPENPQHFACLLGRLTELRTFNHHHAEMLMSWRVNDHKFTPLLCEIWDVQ
Experimental: As those skilled in the art appreciate, various technologies are available for assessment of FXR activation in accordance with the present disclosure. […] Human FXR (NR1H4) agonist assessment (see, e.g., Yu et al. eLife 2019; 8: e48431): HEK293T cells stably expressing human FXR and containing FXR response element (FXRE)-NanoLuc reporter were cultured in DMEM medium supplemented with 10% FBS and 1% PS, at 37° C. in a humidified atmosphere with 5% CO2. Cells were detached by centrifuging (1000 rpm, 3 min). The pellet was re-suspended in medium, and cell density was adjusted to about 1×10^6 cells/mL. 100 μL suspension was seeded to each well of a white-walled, clear-bottom 96-well microplates (cell plate). Cells in microplates were cultured overnight.
In the following day, cells were grown to higher than 95% density in each well. Culture medium was replaced, and compounds were added to the wells. 0.01% DMSO (v/v) served as negative control. Plates were incubated at 37° C. in 5% CO2 for 24 hr.
In the following day, a 10 μL aliquot of cell culture medium was removed from each well and combined with 40 μL culture medium plus […] assay buffer (containing 20 mM of the luciferase substrate coelenterazine). After 5 min incubation, luminescence was measured using an EnVision plate reader (PerkinElmer).
In some embodiments, gradient diluted solutions of several concentrations were used to treat cells and corresponding responses were used to fit sigmoid function and to derive EC50 in Origin.

[2] = target: MRGPRX4 (Homo sapiens, UniProt Q96LA9); experiment: MRGPRX4 activation, Fluo-8 Ca2+ FLIPR assay in HEK293T cells stably expressing MRGPRX4; assay type: cell-based; settings: for EC50: MRGPRX4 activation, Ca2+ fluorescence, no activation in tested range reported as III, read-out: Activity (EC50 μM)
Chain of MRGPRX4 (Q96LA9 whole entry): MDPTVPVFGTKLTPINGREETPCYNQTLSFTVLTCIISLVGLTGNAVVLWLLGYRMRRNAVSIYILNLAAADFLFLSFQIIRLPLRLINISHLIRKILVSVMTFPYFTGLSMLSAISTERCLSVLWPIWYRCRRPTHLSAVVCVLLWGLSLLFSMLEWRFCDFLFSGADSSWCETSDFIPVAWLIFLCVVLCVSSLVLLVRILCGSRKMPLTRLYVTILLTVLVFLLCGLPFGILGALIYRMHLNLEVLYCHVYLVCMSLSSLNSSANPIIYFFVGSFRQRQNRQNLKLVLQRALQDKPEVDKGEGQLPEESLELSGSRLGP
Experimental: In some embodiments, cells were cultured in poly-D-Lys coated blacked walled, clear-bottom 96-well microplates. HEK293T cells stably expressing MRGPRX4 were cultured in DMEM medium supplemented with 10% FBS and 1% PS, at 37° C. in a humidified atmosphere with 5% CO2. Cells were detached by centrifuging (1000 rpm, 3 min). The pellet was re-suspended in medium, and cell density was adjusted to about 1×10^6 cells/mL. 100 μL suspension was seeded to each well of a microplates (cell plate). Cells in the microplates were cultured overnight. In the following day, cells were grown to higher than 95% density in each well.
Ca^2+ fluorescent dye loading: Fluo-8 AM (Screen Quest Fluo-8 AM Calcium Assay Kit, AAT Bioquest, cat. #: 21083) was diluted in HHBS buffer and adjusted to 2 μM (dye buffer). Medium in each well was changed into 50 μL dye buffer carefully. After incubation for 40-60 min under room temperature, the dye buffer was changed into 50 μL HHBS buffer.
The concentration of solution should be determined according to the protocol settings and experimental needs (e.g., Log[M]=−4, −5, −6, −7, −8, and −9). Prepare 2× serial dilution series of compounds (at least 75 μL per well).
A fluorescent signal baseline was measured using FLIPR®Tetra for 30 s. Then 50 μL of the chemical solution would be added to the cell plate. The fluorescent signal would be measured for another 150 s.
Activity of each compound was calculated by the fluorescence change (dF/F0). Curves were fitted to obtain EC50 values. In some embodiments, at least 3 repeats were performed to obtain the average values. For assessment of a compound, gradient diluted solutions of different concentrations were used to treat cells and corresponding responses were used to fit sigmoid function and to derive EC50 in Origin. In some embodiments, assessed concentrations were or included about 10^−4, 10^−4.5, 10^−5, 10^−5.5, 10^−6, 10^−6.5, 10^−7, 10^−8, and/or 10^−9 M; for example, in many instances, assessed concentrations included about 10^−5, 10^−6, 10^−7 and 10^−8 M. In some embodiments, assessed concentrations were about 10^−4, 10^−4.5, 10^−5, 10^−5.5, 10^−6, 10^−7, 10^−8, and 10^−9 M. In some embodiments, assessed concentrations were about 10^−4, 10^−5, 10^−6, 10^−7, 10^−8, and 10^−9 M. In some embodiments, assessed concentrations were about 10^−4, 10^−4.5, 10^−5, 10^−5.5, 10^−6, and 10^−7 M. In some embodiments, assessed concentrations were about 2000000, 1000000, 500000, 250000, 125000, 62500, 31250, 15625, 7813, 3906 nM. […] In some embodiments, assessed concentrations were about 30000, 10000, 3333, 1111, 370, 123, 41, 14, 4.6, 1.5 nM.

Structure (SMILES)	Efficacy (maximum measured induction of NanoLuc, normalized to CDCA set as 100%) [1]	EC50 [1] [µM]	MRGPRX4 activation, fluorescence change (dF/F0), Average ([2]; Conc. (Log[M]) −5)	EC50 [2] [µM]	MRGPRX4 activation, fluorescence change (dF/F0), Average ([2]; Conc. (Log[M]) −4)	MRGPRX4 activation, fluorescence change (dF/F0), Average ([2]; Conc. (Log[M]) −4.5)	MRGPRX4 activation, fluorescence change (dF/F0), Average ([2]; Conc. (Log[M]) −5.5)	MRGPRX4 activation, fluorescence change (dF/F0), Average ([2]; Conc. (Log[M]) −6)	MRGPRX4 activation, fluorescence change (dF/F0), Average ([2]; Conc. (Log[M]) −7)	MRGPRX4 activation, fluorescence change (dF/F0), Average ([2]; Conc. (Log[M]) −8)	MRGPRX4 activation, fluorescence change (dF/F0), Average ([2]; Conc. (Log[M]) −9)
CO/N=C1\C[C@@H]2C[C@H](OC(C)=O)CC[C@]2(C)[C@H]2CC[C@]3(C)[C@@H]([C@H](C)CCC(=O)OC)CC[C@H]3[C@H]12 [1-2]	D (efficacy <=100%)	> 10	0.027 and 0.022	50 to 100							
COC(=O)CC[C@@H](C)[C@H]1CC[C@H]2[C@@H]3/C(=N\OC(C)(C)C(=O)O)C[C@@H]4C[C@H](OC(C)=O)CC[C@]4(C)[C@H]3CC[C@]12C [1-3]	C (100%<efficacy <=300%)	> 10	0.047	< 50	0.109	0.114	−0.026	−0.008	0.018	−0.003	0.008
CC[C@H]1[C@@H](O)[C@@H]2[C@H](CC[C@]3(C)[C@@H]([C@H](C)CCC(=O)OC)CC[C@@H]23)[C@@]2(C)CCCC[C@@H]12 [1-4]	C (100%<efficacy <=300%)	1 to 10	−0.014	> 100	0.098	0.004	−0.004	−0.011	−0.006	−0.009	−0.020
CC[C@H]1[C@@H](OC(=O)c2cccc(I)c2)[C@@H]2[C@H](CC[C@]3(C)[C@@H]([C@H](C)CCC(=O)OC)CC[C@@H]23)[C@@]2(C)CCCC[C@@H]12 [1-5]	D (efficacy <=100%)	> 10	−0.045	50 to 100	0.035	−0.027	−0.034	−0.041	−0.027	−0.049	−0.084
CC[C@H]1[C@@H](OC(=O)c2cccc(I)c2)[C@@H]2[C@H](CC[C@@]3(C)[C@H]2CC[C@]3(Cl)[C@H](C)CCC(=O)OC)[C@@]2(C)CCCC[C@@H]12 [1-6]	D (efficacy <=100%)	> 10	−0.001	> 100	0.018	−0.031	−0.012	−0.006	−0.001	0.001	−0.014
C[C@H](CC/C=C/C(=O)O)[C@H]1CC[C@H]2[C@@H]3CC[C@@H]4C[C@H](O)CC[C@]4(C)[C@H]3CC[C@]12C [1-7]	C (100%<efficacy <=300%)	1 to 10	−0.048	< 50	0.083	0.011	−0.037	−0.044	−0.045	−0.040	−0.034
CC(C[C@@H](C)[C@H]1CC[C@H]2[C@@H]3CC[C@@H]4CCCC[C@]4(C)[C@H]3CC[C@]12C)C(=O)O (stereo partly shown) [2-1]	C (100%<efficacy <=300%)	> 10	−0.045	> 100	0.071	−0.014	−0.072	−0.095	−0.110	−0.072	−0.091
CC(O)CC[C@@H](C)[C@H]1CC[C@H]2[C@@H]3CC[C@@H]4CCCC[C@]4(C)[C@H]3CC[C@]12C (stereo partly shown) [2-2]	C (100%<efficacy <=300%)	> 10		> 100							

From US20260116910A1, “POLYCYCLIC COMPOUNDS AND METHODS THEREOF” (HEPAITECH (BEIJING) BIOPHARMA TECHNOLOGY CO., LTD., priority 2021, published 2026)
